The subject of one assay is A/Fukuoka/C29/85(H3N2). The class given is binding, influenza virus. The following applies: virus 100 HAU in PBS, 150 μl/min for 5 min, room temperature.
The next assay concerns A/Guizhou/54/89(H3N2). The class given is binding, influenza virus. The following applies: virus 100 HAU in PBS, 150 μl/min for 5 min, room temperature.
The format of assay [1] is binding. The settings on record: 2.0 μM protein in PBS-T, 150 μl/min for 5 min, room temperature; FIG. 3.

Regarding Neu5Acα2-6Galβ1-4Glc, the “interaction between sugar chain and influenza virus (SPR signal intensity)” value is listed as “strong interaction” in the assay with A/Fukuoka/C29/85(H3N2) and “limited interaction” in the assay with A/Guizhou/54/89(H3N2).

For concanavalin A, the “interaction of protein with immobilized sugar chains (increase in brightness at spot positions, SPR)” value in assay [1] was “interacted with the sugar chains immobilized at the spot positions”.

On to wheat germ agglutinin, for which the “interaction of protein with immobilized sugar chains (increase in brightness at spot positions, SPR)” value in assay [1] is listed as “interacted with the sugar chains immobilized at the spot positions”.

With bovine serum albumin, the “interaction of protein with immobilized sugar chains (increase in brightness at spot positions, SPR)” value in assay [1] was “increase in brightness at none of the spot positions”.

Values taken from US9239329B2 (priority 2006, dated 2016).
